Laboratory results from ChEMBL document CHEMBL5291721, “A preclinical secondary pharmacology resource illuminates target-adverse drug reaction associations of marketed drugs” (Nat Commun, 2023).

Experiments:
D(3) dopamine receptor = D(3) dopamine receptor (Homo sapiens, UniProt P35462)
[1] = molecular target: Sodium-dependent dopamine transporter (Homo sapiens, UniProt Q01959)
Histamine H3 receptor = Histamine H3 receptor (Homo sapiens, UniProt Q9Y5N1)
[2] = molecular target: Voltage-gated inwardly rectifying potassium channel KCNH2 (Homo sapiens, UniProt Q12809); assay type: functional; details: read-out: AC50
[3] = molecular target: T1, Amine oxidase [flavin-containing] A (Homo sapiens, UniProt P21397); assay type: functional
T1 sequence (P21397 whole entry): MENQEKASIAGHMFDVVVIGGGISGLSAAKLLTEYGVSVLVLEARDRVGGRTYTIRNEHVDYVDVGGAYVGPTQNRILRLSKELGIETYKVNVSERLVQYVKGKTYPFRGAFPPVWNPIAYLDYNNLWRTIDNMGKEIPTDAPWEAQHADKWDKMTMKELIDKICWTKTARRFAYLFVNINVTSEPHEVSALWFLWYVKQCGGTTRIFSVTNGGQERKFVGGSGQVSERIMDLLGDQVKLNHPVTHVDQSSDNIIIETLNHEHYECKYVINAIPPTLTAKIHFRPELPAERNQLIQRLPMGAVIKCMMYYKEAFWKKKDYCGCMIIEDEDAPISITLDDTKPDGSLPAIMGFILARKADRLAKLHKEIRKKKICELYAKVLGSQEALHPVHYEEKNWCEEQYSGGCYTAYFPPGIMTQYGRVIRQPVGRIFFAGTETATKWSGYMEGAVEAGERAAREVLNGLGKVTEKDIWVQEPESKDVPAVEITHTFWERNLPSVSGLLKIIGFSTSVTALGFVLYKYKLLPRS

Mu-type opioid receptor = Mu-type opioid receptor (Homo sapiens, UniProt P35372)
D(1A) dopamine receptor = D(1A) dopamine receptor (Homo sapiens, UniProt P21728)
[4] = molecular target: Sodium-dependent noradrenaline transporter (Homo sapiens, UniProt P23975)
[5] = molecular target: cGMP-inhibited 3',5'-cyclic phosphodiesterase 3A (Homo sapiens, UniProt Q14432); assay type: functional
Prothrombin = Prothrombin (Homo sapiens, UniProt P00734); assay type: functional
[6] = molecular target: 3',5'-cyclic-AMP phosphodiesterase 4A (Homo sapiens, UniProt P27815); assay type: functional
[7] = molecular target: T2, 5-hydroxytryptamine receptor 1A (Homo sapiens, UniProt P08908)
T2 sequence (P08908 whole entry): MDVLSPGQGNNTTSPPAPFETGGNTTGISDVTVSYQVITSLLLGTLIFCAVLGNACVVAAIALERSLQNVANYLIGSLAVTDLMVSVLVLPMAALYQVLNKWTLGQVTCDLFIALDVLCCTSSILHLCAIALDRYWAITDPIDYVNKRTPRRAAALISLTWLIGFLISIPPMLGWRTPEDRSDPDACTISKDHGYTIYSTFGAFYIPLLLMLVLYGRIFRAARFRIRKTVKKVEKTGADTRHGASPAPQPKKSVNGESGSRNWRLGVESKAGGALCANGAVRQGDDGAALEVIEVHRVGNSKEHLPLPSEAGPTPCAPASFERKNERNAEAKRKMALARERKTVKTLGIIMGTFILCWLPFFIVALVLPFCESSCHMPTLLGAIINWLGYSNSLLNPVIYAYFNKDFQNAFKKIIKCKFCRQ

[8] = molecular target: 5-hydroxytryptamine receptor 2B (Homo sapiens, UniProt P41595); assay type: functional, cell-based
Bile salt export pump = Bile salt export pump (Homo sapiens, UniProt O95342); assay type: functional
Thromboxane A2 receptor = molecular target: T3, Thromboxane A2 receptor (Homo sapiens, UniProt P21731); assay type: functional, cell-based
T3 sequence (P21731 whole entry): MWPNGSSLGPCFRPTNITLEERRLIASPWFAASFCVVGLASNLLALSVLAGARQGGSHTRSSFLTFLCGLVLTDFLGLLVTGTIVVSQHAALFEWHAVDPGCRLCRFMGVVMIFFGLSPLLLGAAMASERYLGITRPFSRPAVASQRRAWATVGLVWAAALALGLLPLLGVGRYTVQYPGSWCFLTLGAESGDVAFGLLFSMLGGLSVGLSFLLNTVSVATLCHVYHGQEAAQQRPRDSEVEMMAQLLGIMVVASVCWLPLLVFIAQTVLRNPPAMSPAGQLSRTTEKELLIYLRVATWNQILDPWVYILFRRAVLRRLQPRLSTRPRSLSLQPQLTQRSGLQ

[9] = molecular target: Prostaglandin G/H synthase 1 (Homo sapiens, UniProt P23219); assay type: functional
[10] = molecular target: T4, Muscarinic acetylcholine receptor M2 (Homo sapiens, UniProt P08172)
T4 sequence (P08172 whole entry): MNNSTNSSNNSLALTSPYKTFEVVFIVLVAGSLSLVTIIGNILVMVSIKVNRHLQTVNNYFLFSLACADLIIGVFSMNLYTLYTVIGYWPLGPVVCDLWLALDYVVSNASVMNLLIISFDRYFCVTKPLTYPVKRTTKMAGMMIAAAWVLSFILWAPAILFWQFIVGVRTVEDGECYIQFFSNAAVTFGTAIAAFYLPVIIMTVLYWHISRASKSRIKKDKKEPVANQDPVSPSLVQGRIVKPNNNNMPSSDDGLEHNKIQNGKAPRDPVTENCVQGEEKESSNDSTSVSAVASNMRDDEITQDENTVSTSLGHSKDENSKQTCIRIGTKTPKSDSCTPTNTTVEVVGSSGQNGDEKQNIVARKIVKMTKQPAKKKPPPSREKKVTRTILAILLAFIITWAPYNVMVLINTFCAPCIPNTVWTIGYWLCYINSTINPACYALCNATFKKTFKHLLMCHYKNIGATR

Acetylcholinesterase = Acetylcholinesterase (Homo sapiens, UniProt P22303); assay type: functional
Also: assay procedure not described here.

Sequence of D(1A) dopamine receptor (P21728 whole entry): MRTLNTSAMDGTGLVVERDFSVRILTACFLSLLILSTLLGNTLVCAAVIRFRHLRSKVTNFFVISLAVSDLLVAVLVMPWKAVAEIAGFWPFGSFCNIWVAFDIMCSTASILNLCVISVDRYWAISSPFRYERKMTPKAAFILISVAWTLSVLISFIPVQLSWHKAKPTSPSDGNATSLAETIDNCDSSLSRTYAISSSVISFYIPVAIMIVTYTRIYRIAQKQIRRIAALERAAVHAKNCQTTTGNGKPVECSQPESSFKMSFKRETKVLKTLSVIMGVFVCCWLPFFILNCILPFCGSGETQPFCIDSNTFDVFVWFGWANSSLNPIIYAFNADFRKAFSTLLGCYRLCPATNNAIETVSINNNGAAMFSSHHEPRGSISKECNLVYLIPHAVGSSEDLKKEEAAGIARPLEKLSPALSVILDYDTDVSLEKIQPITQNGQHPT
Sequence of Histamine H3 receptor (Q9Y5N1 whole entry): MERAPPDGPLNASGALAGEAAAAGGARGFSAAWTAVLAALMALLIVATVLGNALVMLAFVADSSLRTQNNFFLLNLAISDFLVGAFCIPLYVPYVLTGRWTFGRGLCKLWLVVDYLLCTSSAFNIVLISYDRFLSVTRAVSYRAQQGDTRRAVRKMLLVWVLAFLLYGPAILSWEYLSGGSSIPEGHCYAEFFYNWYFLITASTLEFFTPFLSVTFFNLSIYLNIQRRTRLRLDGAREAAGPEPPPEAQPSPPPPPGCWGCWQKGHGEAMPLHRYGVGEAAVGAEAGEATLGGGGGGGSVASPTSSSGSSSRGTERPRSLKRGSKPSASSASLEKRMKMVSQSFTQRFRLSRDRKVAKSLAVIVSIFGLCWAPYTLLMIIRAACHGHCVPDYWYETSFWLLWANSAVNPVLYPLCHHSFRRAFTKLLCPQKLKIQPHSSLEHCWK
Sequence of 5-hydroxytryptamine receptor 2B (P41595 whole entry): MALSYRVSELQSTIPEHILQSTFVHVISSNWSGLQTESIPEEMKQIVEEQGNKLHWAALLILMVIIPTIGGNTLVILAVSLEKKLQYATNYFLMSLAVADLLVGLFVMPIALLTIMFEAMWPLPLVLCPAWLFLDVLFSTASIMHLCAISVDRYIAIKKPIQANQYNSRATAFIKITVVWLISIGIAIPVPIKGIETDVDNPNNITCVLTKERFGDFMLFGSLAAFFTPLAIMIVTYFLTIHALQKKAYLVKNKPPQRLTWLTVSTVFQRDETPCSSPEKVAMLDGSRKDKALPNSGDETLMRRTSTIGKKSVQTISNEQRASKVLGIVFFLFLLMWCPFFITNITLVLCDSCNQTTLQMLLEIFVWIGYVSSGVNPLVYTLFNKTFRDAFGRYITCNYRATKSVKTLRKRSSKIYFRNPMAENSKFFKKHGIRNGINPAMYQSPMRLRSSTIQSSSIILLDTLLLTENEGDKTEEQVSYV
Sequence of cGMP-inhibited 3',5'-cyclic phosphodiesterase 3A (Q14432 whole entry): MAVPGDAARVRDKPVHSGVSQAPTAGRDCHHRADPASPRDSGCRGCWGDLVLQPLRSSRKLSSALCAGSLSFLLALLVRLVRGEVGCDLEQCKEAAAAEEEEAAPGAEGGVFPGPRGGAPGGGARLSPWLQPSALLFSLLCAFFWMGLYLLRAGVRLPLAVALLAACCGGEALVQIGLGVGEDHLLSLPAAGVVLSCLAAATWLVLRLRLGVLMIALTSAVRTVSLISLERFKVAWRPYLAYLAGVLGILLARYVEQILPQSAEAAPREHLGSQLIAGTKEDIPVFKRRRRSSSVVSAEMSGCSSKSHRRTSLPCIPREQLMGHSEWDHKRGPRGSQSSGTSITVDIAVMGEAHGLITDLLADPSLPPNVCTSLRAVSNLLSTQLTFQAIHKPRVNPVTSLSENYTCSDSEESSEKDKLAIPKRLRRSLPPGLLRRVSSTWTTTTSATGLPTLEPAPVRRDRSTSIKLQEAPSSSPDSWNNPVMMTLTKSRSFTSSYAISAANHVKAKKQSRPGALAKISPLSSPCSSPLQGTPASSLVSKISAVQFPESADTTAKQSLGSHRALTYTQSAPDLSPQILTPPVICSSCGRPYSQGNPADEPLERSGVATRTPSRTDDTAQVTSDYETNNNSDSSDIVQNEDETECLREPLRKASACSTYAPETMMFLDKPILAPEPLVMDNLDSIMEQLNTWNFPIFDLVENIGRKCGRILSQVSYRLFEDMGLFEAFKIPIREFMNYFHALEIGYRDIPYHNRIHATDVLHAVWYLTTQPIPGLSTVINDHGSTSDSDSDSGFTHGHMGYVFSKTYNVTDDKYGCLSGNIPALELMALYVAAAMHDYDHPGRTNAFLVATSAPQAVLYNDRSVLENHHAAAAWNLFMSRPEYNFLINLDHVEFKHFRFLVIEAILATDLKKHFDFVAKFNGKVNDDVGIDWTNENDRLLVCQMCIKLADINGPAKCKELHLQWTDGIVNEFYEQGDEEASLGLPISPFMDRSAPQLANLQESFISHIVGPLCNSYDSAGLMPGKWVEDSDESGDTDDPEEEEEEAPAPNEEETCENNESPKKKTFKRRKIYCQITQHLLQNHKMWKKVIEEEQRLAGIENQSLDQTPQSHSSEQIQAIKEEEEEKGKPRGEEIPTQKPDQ
Sequence of Prostaglandin G/H synthase 1 (P23219 whole entry): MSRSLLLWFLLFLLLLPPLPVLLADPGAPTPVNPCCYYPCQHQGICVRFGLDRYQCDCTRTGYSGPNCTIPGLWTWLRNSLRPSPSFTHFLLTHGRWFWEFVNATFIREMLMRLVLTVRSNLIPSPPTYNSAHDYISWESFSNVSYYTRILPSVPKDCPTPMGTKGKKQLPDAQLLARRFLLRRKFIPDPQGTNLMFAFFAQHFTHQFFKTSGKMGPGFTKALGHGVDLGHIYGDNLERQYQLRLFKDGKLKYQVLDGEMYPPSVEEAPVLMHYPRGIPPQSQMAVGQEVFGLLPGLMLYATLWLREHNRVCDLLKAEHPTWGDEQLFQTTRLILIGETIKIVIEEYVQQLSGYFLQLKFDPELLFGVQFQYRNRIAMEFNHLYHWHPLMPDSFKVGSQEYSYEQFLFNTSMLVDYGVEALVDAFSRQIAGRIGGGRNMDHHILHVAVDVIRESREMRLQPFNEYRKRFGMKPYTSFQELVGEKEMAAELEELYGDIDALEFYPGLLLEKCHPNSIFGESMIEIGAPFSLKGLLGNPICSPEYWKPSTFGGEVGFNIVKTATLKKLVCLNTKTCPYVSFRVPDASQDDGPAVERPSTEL
Sequence of Acetylcholinesterase (P22303 whole entry): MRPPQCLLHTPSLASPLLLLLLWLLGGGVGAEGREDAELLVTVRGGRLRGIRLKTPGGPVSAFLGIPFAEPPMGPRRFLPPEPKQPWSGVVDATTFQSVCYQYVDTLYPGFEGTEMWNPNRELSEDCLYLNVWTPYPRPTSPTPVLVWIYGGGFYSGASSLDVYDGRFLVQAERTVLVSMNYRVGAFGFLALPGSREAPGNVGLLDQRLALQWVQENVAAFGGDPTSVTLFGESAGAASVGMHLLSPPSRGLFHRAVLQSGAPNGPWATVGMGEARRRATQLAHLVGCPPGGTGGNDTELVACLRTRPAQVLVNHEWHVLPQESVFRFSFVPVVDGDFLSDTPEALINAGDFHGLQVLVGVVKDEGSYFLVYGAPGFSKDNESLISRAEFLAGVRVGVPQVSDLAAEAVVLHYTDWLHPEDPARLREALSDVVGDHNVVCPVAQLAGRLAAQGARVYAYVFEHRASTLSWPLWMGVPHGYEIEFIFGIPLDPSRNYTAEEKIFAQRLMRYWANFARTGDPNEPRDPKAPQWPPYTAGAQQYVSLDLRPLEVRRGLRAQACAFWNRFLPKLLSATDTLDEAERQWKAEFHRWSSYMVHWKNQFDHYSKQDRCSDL
Sequence of Bile salt export pump (O95342 whole entry): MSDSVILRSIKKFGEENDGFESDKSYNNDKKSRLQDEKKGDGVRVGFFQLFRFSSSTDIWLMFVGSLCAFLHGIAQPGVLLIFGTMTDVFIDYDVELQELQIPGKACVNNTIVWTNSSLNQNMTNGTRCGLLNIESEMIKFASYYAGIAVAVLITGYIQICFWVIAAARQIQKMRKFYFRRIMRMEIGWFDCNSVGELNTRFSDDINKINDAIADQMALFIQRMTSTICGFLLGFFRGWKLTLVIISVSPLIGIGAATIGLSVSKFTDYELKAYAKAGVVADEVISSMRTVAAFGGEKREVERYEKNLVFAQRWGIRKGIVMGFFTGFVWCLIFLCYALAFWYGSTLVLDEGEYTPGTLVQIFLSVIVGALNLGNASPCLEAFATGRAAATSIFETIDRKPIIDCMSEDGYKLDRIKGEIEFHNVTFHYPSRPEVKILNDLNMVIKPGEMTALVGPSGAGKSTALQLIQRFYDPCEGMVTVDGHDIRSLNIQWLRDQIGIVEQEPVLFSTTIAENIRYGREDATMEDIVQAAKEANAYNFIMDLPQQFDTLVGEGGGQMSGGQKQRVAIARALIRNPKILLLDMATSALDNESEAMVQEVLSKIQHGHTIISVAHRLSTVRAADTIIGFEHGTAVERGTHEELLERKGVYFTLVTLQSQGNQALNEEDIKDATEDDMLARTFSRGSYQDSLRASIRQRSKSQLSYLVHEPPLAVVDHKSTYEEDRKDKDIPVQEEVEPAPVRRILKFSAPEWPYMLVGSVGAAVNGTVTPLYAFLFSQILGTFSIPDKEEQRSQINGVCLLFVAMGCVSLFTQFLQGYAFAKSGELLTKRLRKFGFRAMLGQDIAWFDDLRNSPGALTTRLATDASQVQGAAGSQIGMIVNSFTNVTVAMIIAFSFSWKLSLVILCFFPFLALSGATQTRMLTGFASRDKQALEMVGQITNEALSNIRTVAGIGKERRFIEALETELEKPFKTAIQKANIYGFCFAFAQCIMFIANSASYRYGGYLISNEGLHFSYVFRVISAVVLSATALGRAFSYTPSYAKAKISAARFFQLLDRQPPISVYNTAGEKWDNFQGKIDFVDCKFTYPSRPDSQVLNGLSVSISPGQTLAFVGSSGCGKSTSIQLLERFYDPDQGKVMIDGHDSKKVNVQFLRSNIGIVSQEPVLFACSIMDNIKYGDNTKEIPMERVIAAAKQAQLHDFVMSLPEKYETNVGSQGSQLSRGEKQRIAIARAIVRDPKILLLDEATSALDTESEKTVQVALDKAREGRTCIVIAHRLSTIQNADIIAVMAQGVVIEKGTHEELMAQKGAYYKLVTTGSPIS

Row | SMILES | AC50 (D(3) dopamine receptor) | AC50 [1] | AC50 (Histamine H3 receptor) | AC50 [2] | AC50 [3] | AC50 (Mu-type opioid receptor) | AC50 (D(1A) dopamine receptor) | AC50 [4] | AC50 [5] | AC50 (Prothrombin) | AC50 [6] | AC50 [7] | AC50 [8] | AC50 (Bile salt export pump) | AC50 (Thromboxane A2 receptor) | AC50 [9] | AC50 [10] | AC50 (Acetylcholinesterase)
1 | C#Cc1cccc(Nc2ncnc3cc(OCCOC)c(OCCOC)cc23)c1 [ERLOTINIB] | > 30 µM | > 30 µM | > 30 µM | > 30 µM | > 30 µM | 3.82 µM | > 10 µM | > 30 µM | > 30 µM | > 30 µM | > 30 µM | > 30 µM | > 30 µM | 6.1 µM | > 30 µM | > 30 µM | 13.2 µM | > 30 µM
2 | CCC(=O)O[C@@H](O[P@](=O)(CCCCc1ccccc1)CC(=O)N1C[C@H](C2CCCCC2)C[C@H]1C(=O)O)C(C)C [FOSINOPRIL] | > 30 µM | > 30 µM | > 30 µM | > 30 µM | > 30 µM | > 30 µM | > 30 µM | > 30 µM | > 30 µM | > 30 µM | > 30 µM | > 30 µM | > 30 µM | 11 µM | > 30 µM | > 30 µM | > 30 µM | > 30 µM
3 | CC(=O)/N=c1/sc(S(N)(=O)=O)nn1C [METHAZOLAMIDE] | > 30 µM | > 30 µM | > 30 µM | > 30 µM | > 30 µM | > 30 µM | > 30 µM | > 30 µM | > 30 µM | > 30 µM | > 30 µM | > 30 µM | > 30 µM | > 300 µM | > 30 µM | > 30 µM | > 30 µM | > 30 µM
4 | CCOc1ccc2ccccc2c1C(=O)N[C@@H]1C(=O)N2[C@@H]1SC(C)(C)[C@@H]2C(=O)O [NAFCILLIN] | > 30 µM | > 30 µM | > 30 µM | > 30 µM | > 30 µM | > 30 µM | > 30 µM | > 30 µM | > 30 µM | > 30 µM | > 30 µM | > 30 µM | > 30 µM | 40 µM | > 30 µM | > 30 µM | > 30 µM | > 30 µM
5 | CC(C)[N+](C)(CCOC(=O)C1c2ccccc2Oc2ccccc21)C(C)C [PROPANTHELINE] | > 30 µM | > 30 µM | > 30 µM | 2 µM | > 30 µM | > 30 µM | > 30 µM | > 30 µM | > 30 µM | > 30 µM | > 30 µM | > 30 µM | > 30 µM | > 300 µM | > 30 µM | > 30 µM | 0.003 µM | > 30 µM
6 | CNC(=O)c1cc(Oc2ccc(NC(=O)Nc3ccc(Cl)c(C(F)(F)F)c3)c(F)c2)ccn1 [REGORAFENIB] | > 30 µM | 1.04 µM | > 30 µM | > 10 µM | > 30 µM | 4.43 µM | 5.61 µM | 20 µM | > 30 µM | > 30 µM | > 30 µM | 1.42 µM | > 30 µM | 3 µM | 6.35 µM | 17.5 µM | > 30 µM | > 30 µM
7 | NC(=O)NS(=O)(=O)c1ccc(N)cc1 [SULFACARBAMIDE] | > 30 µM | > 30 µM | > 30 µM | > 30 µM | > 30 µM | > 30 µM | > 30 µM | > 30 µM | > 30 µM | > 30 µM | > 30 µM | > 30 µM | > 30 µM | > 300 µM | > 30 µM | > 30 µM | > 30 µM | > 30 µM
8 | CC1(C)O[C@@H]2[C@@H](CO[C@@]3(COS(N)(=O)=O)OC(C)(C)O[C@@H]23)O1 [TOPIRAMATE] | > 30 µM | > 30 µM | > 30 µM | > 30 µM | > 30 µM | > 30 µM | > 30 µM | > 30 µM | > 30 µM | > 30 µM | > 30 µM | > 30 µM | > 30 µM | > 300 µM | > 30 µM | > 30 µM | > 30 µM | > 30 µM
